{"source": "PubChem BioAssay AID1963444", "about": "(Molecular Pharmacology Branch, DTP, NCI, 2024)", "tested_on": "HSSY-II complex spheroid growth, percent test/control", "test": "Anticancer human tumor HSSY-II cell line growth inhibition [Asc];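 for all read-outs here: spheroids exposed to drug for 7 days before reading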", "conditions": "for IC50: curve of first compound; for viability, T/C: stronger effect = lower value", "summary_of_the_method": "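Concentration series start at each agent's clinical Cmax, or at 10 microM when none is established, and drop in half-log steps; agents are applied alone or together to complex spheroids built with HUVEC and hMSC.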"}
{"molecule": "NC1CCC(NC2CC2c2ccccc2)CC1", "note": "(stereo not given) + CCN1C(C(=O)NC23CCC(C(=O)O)(CC2)CC3)C(c2cccc(Cl)c2F)C2(C(=O)Nc3cc(Cl)ccc32)C12CCCCC2", "values": [{"measurement": "IC50", "setting": "second compound 0.03 µM", "result": "> 100", "unit": "nM"}, {"measurement": "IC50", "setting": "second compound 0.0949 µM", "result": 2.07, "unit": "nM"}, {"measurement": "IC50", "setting": "second compound 0.3 µM", "result": "< 0.316", "unit": "nM"}, {"measurement": "IC50", "setting": "second compound 0.949 µM", "result": "< 0.316", "unit": "nM"}, {"measurement": "IC50", "setting": "second compound 3 µM", "result": "< 0.316", "unit": "nM"}, {"measurement": "viability, T/C", "setting": "second compound 0.03 µM, first compound 0.000316 µM", "result": 61.3, "unit": "%"}, {"measurement": "viability, T/C", "setting": "second compound 0.03 µM, first compound 0.001 µM", "result": 64, "unit": "%"}, {"measurement": "viability, T/C", "setting": "second compound 0.03 µM, first compound 0.00316 µM", "result": 58.6, "unit": "%"}, {"measurement": "viability, T/C", "setting": "second compound 0.03 µM, first compound 0.01 µM", "result": 59.8, "unit": "%"}, {"measurement": "viability, T/C", "setting": "second compound 0.03 µM, first compound 0.0316 µM", "result": 55.8, "unit": "%"}, {"measurement": "viability, T/C", "setting": "second compound 0.03 µM, first compound 0.1 µM", "result": 57, "unit": "%"}, {"measurement": "viability, T/C", "setting": "second compound 0.0949 µM, first compound 0.000316 µM", "result": 51.2, "unit": "%"}, {"measurement": "viability, T/C", "setting": "second compound 0.0949 µM, first compound 0.001 µM", "result": 51.1, "unit": "%"}, {"measurement": "viability, T/C", "setting": "second compound 0.0949 µM, first compound 0.00316 µM", "result": 49.1, "unit": "%"}, {"measurement": "viability, T/C", "setting": "second compound 0.0949 µM, first compound 0.01 µM", "result": 47.7, "unit": "%"}, {"measurement": "viability, T/C", "setting": "second compound 0.0949 µM, first compound 0.0316 µM", "result": 51.1, "unit": "%"}, {"measurement": "viability, T/C", "setting": "second compound 0.0949 µM, first compound 0.1 µM", "result": 44.3, "unit": "%"}, {"measurement": "viability, T/C", "setting": "second compound 0.3 µM, first compound 0.000316 µM", "result": 27.9, "unit": "%"}, {"measurement": "viability, T/C", "setting": "second compound 0.3 µM, first compound 0.001 µM", "result": 24.9, "unit": "%"}, {"measurement": "viability, T/C", "setting": "second compound 0.3 µM, first compound 0.00316 µM", "result": 26.9, "unit": "%"}, {"measurement": "viability, T/C", "setting": "second compound 0.3 µM, first compound 0.01 µM", "result": 23.3, "unit": "%"}, {"measurement": "viability, T/C", "setting": "second compound 0.3 µM, first compound 0.0316 µM", "result": 25.6, "unit": "%"}, {"measurement": "viability, T/C", "setting": "second compound 0.3 µM, first compound 0.1 µM", "result": 27, "unit": "%"}, {"measurement": "viability, T/C", "setting": "second compound 0.949 µM, first compound 0.000316 µM", "result": 8.22, "unit": "%"}, {"measurement": "viability, T/C", "setting": "second compound 0.949 µM, first compound 0.001 µM", "result": 6.71, "unit": "%"}, {"measurement": "viability, T/C", "setting": "second compound 0.949 µM, first compound 0.00316 µM", "result": 6.88, "unit": "%"}, {"measurement": "viability, T/C", "setting": "second compound 0.949 µM, first compound 0.01 µM", "result": 6.14, "unit": "%"}, {"measurement": "viability, T/C", "setting": "second compound 0.949 µM, first compound 0.0316 µM", "result": 7.47, "unit": "%"}, {"measurement": "viability, T/C", "setting": "second compound 0.949 µM, first compound 0.1 µM", "result": 6.92, "unit": "%"}, {"measurement": "viability, T/C", "setting": "second compound 3 µM, first compound 0.000316 µM", "result": 1.71, "unit": "%"}, {"measurement": "viability, T/C", "setting": "second compound 3 µM, first compound 0.001 µM", "result": 1.81, "unit": "%"}, {"measurement": "viability, T/C", "setting": "second compound 3 µM, first compound 0.00316 µM", "result": 1.94, "unit": "%"}, {"measurement": "viability, T/C", "setting": "second compound 3 µM, first compound 0.01 µM", "result": 1.61, "unit": "%"}, {"measurement": "viability, T/C", "setting": "second compound 3 µM, first compound 0.0316 µM", "result": 1.43, "unit": "%"}, {"measurement": "viability, T/C", "setting": "second compound 3 µM, first compound 0.1 µM", "result": 2.12, "unit": "%"}]}
